# Assay results from PubChem BioAssay (NCI).
# Where “and” joins values, the source holds several entries; their conditions need not be identical. Identical values can stand only once.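 GI50 = concentration required for 50% inhibition of growth. At the TGI there is no net growth.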
# Key:
# Experiment in all cases: growth of human tumour cells (NCI), 384-well format
# NCI-H23 lung = tested on: NCI-H23 lung
# NCI-H322M lung = tested on: NCI-H322M lung
# NCI-H460 NSCLC = tested on: NCI-H460 NSCLC
# NCI-H522 lung = tested on: NCI-H522 lung
# NCI/ADR-RES ovarian = tested on: NCI/ADR-RES ovarian
# OVCAR-3 ovarian = tested on: OVCAR-3 ovarian
# OVCAR-4 ovarian = tested on: OVCAR-4 ovarian
# OVCAR-5 ovarian = tested on: OVCAR-5 ovarian
# OVCAR-8 ovarian = tested on: OVCAR-8 ovarian
# PC-3 prostate = tested on: PC-3 prostate
# RPMI-8226 leukemia = tested on: RPMI-8226 leukemia
# RXF 393 renal = tested on: RXF 393 renal
# SF-268 CNS = tested on: SF-268 CNS
# SF-295 CNS = tested on: SF-295 CNS
# SF-539 CNS = tested on: SF-539 CNS
# SK-MEL-2 melanoma = tested on: SK-MEL-2 melanoma
# SK-MEL-28 melanoma = tested on: SK-MEL-28 melanoma
# SK-MEL-5 melanoma = tested on: SK-MEL-5 melanoma
# SK-OV-3 ovarian = tested on: SK-OV-3 ovarian
# SN12C renal = tested on: SN12C renal
# SNB-19 CNS = tested on: SNB-19 CNS
# SNB-75 CNS = tested on: SNB-75 CNS
# SR leukemia = tested on: SR leukemia
# SW-620 colon = tested on: SW-620 colon
# T-47D breast = tested on: T-47D breast
# TK-10 renal = tested on: TK-10 renal
# U251 glioblastoma = tested on: U251 glioblastoma
# UACC-257 melanoma = tested on: UACC-257 melanoma
# UACC-62 melanoma = tested on: UACC-62 melanoma
# UO-31 renal = tested on: UO-31 renal
compound,measurement,setting,value
O=S(=O)(NCCNC/C=C/c1ccc(Br)cc1)c1cccc2cnccc12,TGI,NCI-H23 lung,20.3 µM and 21.6 µM
same,GI50,NCI-H322M lung,10.2 µM and 10.7 µM
same,TGI,NCI-H322M lung,21.9 µM and 22.6 µM
same,GI50,NCI-H460 NSCLC,4.63 µM and 4.23 µM
same,TGI,NCI-H460 NSCLC,15.9 µM and 14.5 µM
same,GI50,NCI-H522 lung,12.1 µM and 13.7 µM
same,TGI,NCI-H522 lung,24.6 µM and 26.6 µM
same,GI50,NCI/ADR-RES ovarian,13.2 µM and 14.6 µM
same,TGI,NCI/ADR-RES ovarian,26.1 µM and 27.9 µM
same,GI50,OVCAR-3 ovarian,11.3 µM and 14.7 µM
same,TGI,OVCAR-3 ovarian,23.4 µM and 28 µM
same,GI50,OVCAR-4 ovarian,12.8 µM and 13.8 µM
same,TGI,OVCAR-4 ovarian,25.5 µM and 26.8 µM
same,GI50,OVCAR-5 ovarian,12.7 µM
same,TGI,OVCAR-5 ovarian,25.4 µM
same,GI50,OVCAR-8 ovarian,12.2 µM and 11.8 µM
same,TGI,OVCAR-8 ovarian,24.7 µM and 24.2 µM
same,GI50,PC-3 prostate,3.6 µM and 6.95 µM
same,TGI,PC-3 prostate,18.6 µM and 19.8 µM
same,GI50,RPMI-8226 leukemia,0.815 µM and 3.15 µM
same,TGI,RPMI-8226 leukemia,5.43 µM and 11.4 µM
same,GI50,RXF 393 renal,1.08 µM and 5.38 µM
same,TGI,RXF 393 renal,8.71 µM and 18 µM
same,GI50,SF-268 CNS,12 µM and 12.9 µM
same,TGI,SF-268 CNS,24.4 µM and 25.6 µM
same,GI50,SF-295 CNS,15.4 µM and 14.7 µM
same,TGI,SF-295 CNS,28.8 µM and 27.9 µM
same,GI50,SF-539 CNS,5.11 µM and 10.2 µM
same,TGI,SF-539 CNS,19.7 µM and 21.9 µM
same,GI50,SK-MEL-2 melanoma,2.74 µM
same,TGI,SK-MEL-2 melanoma,6.86 µM
same,GI50,SK-MEL-28 melanoma,1.88 µM and 4.09 µM
same,TGI,SK-MEL-28 melanoma,15.6 µM and 14 µM
same,GI50,SK-MEL-5 melanoma,2.89 µM and 3.31 µM
same,TGI,SK-MEL-5 melanoma,10.1 µM and 12.7 µM
same,GI50,SK-OV-3 ovarian,10.4 µM and 10.9 µM
same,TGI,SK-OV-3 ovarian,22.2 µM and 22.9 µM
same,GI50,SN12C renal,13.4 µM and 13.1 µM
same,TGI,SN12C renal,26.3 µM and 25.8 µM
same,GI50,SNB-19 CNS,17 µM and 16.1 µM
same,TGI,SNB-19 CNS,30.8 µM and 29.7 µM
same,GI50,SNB-75 CNS,10.3 µM and 10.8 µM
same,TGI,SNB-75 CNS,22 µM and 22.7 µM
same,GI50,SR leukemia,0.34 µM and 3.27 µM
same,TGI,SR leukemia,1.15 µM and 5.05 µM
same,GI50,SW-620 colon,14 µM and 14.8 µM
same,TGI,SW-620 colon,27.1 µM and 28.2 µM
same,GI50,T-47D breast,2.78 µM and 4.36 µM
same,TGI,T-47D breast,13.3 µM and 16.8 µM
same,GI50,TK-10 renal,10.4 µM and 11.3 µM
same,TGI,TK-10 renal,22.2 µM and 23.5 µM
same,GI50,U251 glioblastoma,12.3 µM and 12.5 µM
same,TGI,U251 glioblastoma,24.9 µM and 25.2 µM
same,GI50,UACC-257 melanoma,2.2 µM and 2.34 µM
same,TGI,UACC-257 melanoma,4.51 µM and 5.87 µM
same,GI50,UACC-62 melanoma,0.814 µM and 3.2 µM
same,TGI,UACC-62 melanoma,6.43 µM and 10.8 µM
same,GI50,UO-31 renal,12.5 µM and 13.1 µM
same,TGI,UO-31 renal,25.1 µM and 26 µM
